Measurements published in US6642250B2, “1,8-naphthyridin-2(1H)-one derivatives” (Grelan Pharmaceutical Co., Ltd., priority 1999, dated 2003).
pIC50: −log10 of the molar value.

How the values were obtained:
PDE II = biological target: T1, PDE II (Sus scrofa, UniProt F1SUV3); test: PDE inhibition, type II PDE (cAMP substrate, cGMP added); assay type: biochemical; conditions: PDE II from porcine hearts, cAMP 1 μM; read-out: Inhibition of PDE Isoenzymes (IC50) II
T1 sequence (F1SUV3 1-945): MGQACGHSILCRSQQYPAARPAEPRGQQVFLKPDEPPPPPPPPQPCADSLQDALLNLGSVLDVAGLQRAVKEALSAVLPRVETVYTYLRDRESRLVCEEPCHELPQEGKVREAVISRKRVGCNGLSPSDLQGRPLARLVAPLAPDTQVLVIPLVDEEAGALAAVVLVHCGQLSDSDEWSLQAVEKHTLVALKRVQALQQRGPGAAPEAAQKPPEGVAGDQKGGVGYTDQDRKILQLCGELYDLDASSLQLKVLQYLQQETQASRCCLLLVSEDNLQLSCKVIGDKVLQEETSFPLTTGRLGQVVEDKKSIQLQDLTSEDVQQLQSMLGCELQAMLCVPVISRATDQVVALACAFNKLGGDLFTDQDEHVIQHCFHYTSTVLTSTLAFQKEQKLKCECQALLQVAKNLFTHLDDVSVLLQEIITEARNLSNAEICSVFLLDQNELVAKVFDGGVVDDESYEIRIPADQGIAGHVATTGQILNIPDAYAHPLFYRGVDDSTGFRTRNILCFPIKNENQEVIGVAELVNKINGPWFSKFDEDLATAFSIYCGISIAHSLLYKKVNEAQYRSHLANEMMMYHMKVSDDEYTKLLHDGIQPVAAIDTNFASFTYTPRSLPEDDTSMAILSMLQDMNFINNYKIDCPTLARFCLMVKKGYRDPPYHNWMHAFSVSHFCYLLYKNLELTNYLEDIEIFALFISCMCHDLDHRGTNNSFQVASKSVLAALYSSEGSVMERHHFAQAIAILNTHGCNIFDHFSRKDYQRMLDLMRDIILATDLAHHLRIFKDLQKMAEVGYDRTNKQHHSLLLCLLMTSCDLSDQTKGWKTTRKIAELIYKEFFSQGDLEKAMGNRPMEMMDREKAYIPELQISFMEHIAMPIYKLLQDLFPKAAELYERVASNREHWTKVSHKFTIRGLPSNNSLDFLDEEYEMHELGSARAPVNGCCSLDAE
Description: (§1) The assays for PDE activity were conducted according to Nicholson et al. method (Br. J. Pharmacol., 97, 889 (1989)).
(§2) Among PDE isozymes, type I, II, III and IV PDEs as used herein were separated from porcine hearts by using an anion exchange chromatography. Type V PDE was also separated from porcine aortae with an anion exchange chromatography and used herein.
(§3) Each PDE isozyme was admixed with ethylene glycol (EG) to adjust the final EG concentration to 30%, then stored at −20° C. and diluted when used. The enzymatic activity for PDE I and V was measured using cGMP as a substrate while that for POE II, III and IV was measured using cAMP.
(§4) [^3H]-cAMP (962 GBq/mmol; Amersham, 25 μl (100,000 cpm)) or [^3H]-cGMP (962 GBq/mmol; Amersham, 25 μl (100,000 cpm)) was added together with each PDE isozyme (25 μl) to an incubation buffer solution with the composition given below to adjust the total volume to 250 μl. Each test compound was dissolved in DMSO to adjust the final concentration to 1% (2.5 μl/tube).
(§5) Incubation buffer solution (pH7.5):
(§6) Tris-HCl (50 mM), magnesium chloride (6 mM), dithiothreitol
(§7) (2.5 mM), 5-nucleotidase (4 μg/ml), bovine serum albumin
(§8) (0.23 mg/ml), and cAMP (1 μM) [or cGMP (1 μM)]
(§9) A mixture of the aforementioned test compound solution and the buffer solution was incubated at 30° C. for 20 minutes. The reaction was quenched by admixing with 1 ml of anion exchange resin slurry (AG1-X8, 200-400 meshes, chloride form; Bio-Rad) to absorb unreacted substrates.
(§10) After the reaction stopped, the mixture was centrifuged at 200×g for 10 minutes, and the resulting supernatant was collected with vials in 250 μl aliquots. To each vial was added 5 ml of ACS-II (scintillator, Amersham). The radioactivity was measured with a liquid scintillator counter for [^3H]-adenosine or [^3H]-guanosine and set as the PDE activity. The measurements were conducted under conditions wherein the enzymatic activity was elevated by adding calmodulin (20 U/ml; Amersham) and calcium chloride (0.1 mM) for PDE-I and cGMP (1 μM) for PDE II, respectively.
(§11) The % inhibition was calculated for test compounds, and IC50 (the concentration of each test compound required for 50% inhibition) was obtained by Probit method. The aforementioned rolipram ((−)-isomer, optical purity: 91% e.e.) known as the PDE IV inhibitor in the prior art was used for the reference compound in this assay.

PDE IV = tested on: T2, PDE IV; test: PDE inhibition, type IV PDE (cAMP substrate); assay type: biochemical; conditions: PDE IV from porcine hearts, cAMP 1 μM; read-out: Inhibition of PDE Isoenzymes (IC50) IV
T2 construct: other: PDE IV from porcine hearts, cAMP 1 μM
Description: as §1, §2, §3, §4, §5, §6, §7, §8, §9, §10, §11
Further, for a comparison with compounds as disclosed in JP, A, 63-159382 (1988), the PDE-inhibiting activity was also measured for Compounds A and D in Table 1 of JP, A, 63-159382 (1988).

PDE V = biological target: T3, PDE V (Sus scrofa, UniProt A0A287B475); test: PDE inhibition, type V PDE (cGMP substrate); assay type: biochemical; conditions: PDE V from porcine aortae, cGMP 1 μM; read-out: Inhibition of PDE Isoenzymes (IC50) V
T3 construct: Type V PDE was also separated from porcine aortae with an anion exchange chromatography and used herein
Description: as §1, §2, §3, §4, §5, §6, §7, §8, §9, §10, §11

PDE I = test: PDE inhibition, type I PDE (cGMP substrate, calmodulin/CaCl2 added); assay type: biochemical; conditions: PDE I from porcine hearts, cGMP 1 μM; read-out: Inhibition of PDE Isoenzymes (IC50) I
Description: as §1, §2, §3, §4, §5, §6, §7, §8, §9, §10, §11

melting point [°C] | pIC50 (PDE II) | pIC50 (PDE IV) | pIC50 (PDE V) | pIC50 (PDE I) | Structure (SMILES)
229 to 231 | – | – | – | – | O=c1c(Cc2ccccn2)cc2cccnc2n1-c1cccc([N+](=O)[O-])c1 [Example 1, 1-(3-Nitrophenyl)-3-(pyridin-2-ylmethyl)-1,8-naphthyridin-2(1H)-one]
230 | – | – | – | – | O=c1c(Cc2ccncc2)cc2cccnc2n1-c1cccc([N+](=O)[O-])c1 [Example 4, 1-(3-Nitrophenyl)-3-(pyridin-4-ylmethyl)-1,8-naphthyridin-2(1H)-one]
148 to 149 | – | – | – | – | O=c1c(CCCc2ccncc2)cc2cccnc2n1-c1cccc(Cl)c1 [Example 9, 1-(3-Chlorophenyl)-3-[3-(pyridin-4-yl)propyl]-1,8-naphthyridin-2(1H)-one]
165 to 166 | – | – | – | – | Cc1ccc2cc(CCCc3ccncc3)c(=O)n(-c3cccc([N+](=O)[O-])c3)c2n1 [Example 11, 7-Methyl-1-(3-nitrophenyl)-3-[3-(pyridin-4-yl)propyl]-1,8-naphthyridin-2(1H)-one]
158 to 159 | – | – | – | – | CSc1cccc(-n2c(=O)c(CCCc3ccncc3)cc3ccc(C)nc32)c1 [Example 12, 7-Methyl-1-(3-methylthiophenyl)-3-[3-(pyridin-4-yl)propyl]-1,8-naphthyridin-2(1H)-one]
189 to 192 | – | – | – | – | O=c1c(CCCCCCCc2ccncc2)cc2cccnc2n1-c1cccc([N+](=O)[O-])c1 [Example 18, 1-(3-Nitrophenyl)-3-[7-(pyridin-4-yl)heptyl]-1,8-naphthyridin-2(1H)-one]
175 to 176 | – | – | – | – | O=c1c(CCc2cccs2)cc2cccnc2n1-c1cccc([N+](=O)[O-])c1 [Example 19, 1-(3-Nitrophenyl)-3-[2-(2-thienyl)ethyl]-1,8-naphthyridin-2(1H)-one]
166 to 167 | – | – | – | – | O=c1c(CCCc2ccco2)cc2cccnc2n1-c1cccc([N+](=O)[O-])c1 [Example 20, 1-(3-Nitrophenyl)-3-[3-(2-furyl)propyl]-1,8-naphthyridin-2(1H)-one]
185 to 186 | – | – | – | – | O=c1c(CCCc2ccoc2)cc2cccnc2n1-c1cccc([N+](=O)[O-])c1 [Example 21, 1-(3-Nitrophenyl)-3-[3-(3-furyl)propyl]-1,8-naphthyridin-2(1H)-one]
167.5 to 169.5 | – | – | – | – | O=c1c(CCCCc2nc3ccccc3s2)cc2cccnc2n1-c1cccc([N+](=O)[O-])c1 [Example 22, 1-(3-Nitrophenyl)-3-[4-(benzothiazol-2-yl)butyl]-1,8-naphthyridin-2(1H)-one]
202 to 203.5 | – | – | – | – | N#Cc1cccc(-n2c(=O)c(CCCc3ccncc3)cc3cccnc32)c1 [Example 25, 1-(3-Cyanophenyl)-3-[3-(pyridin-4-yl)propyl]-1,8-naphthyridin-2(1H)-one]
127 to 131 | – | – | – | – | CS(=O)(=O)c1cccc(-n2c(=O)c(CCCc3ccncc3)cc3cccnc32)c1 [Example 26, 1-(3-Methylsulfonylphenyl)-3-[3-(pyridin-4-yl)propyl]-1,8-naphthyridin-2(1H)-one]
201 to 202 | – | – | – | – | O=c1c(CCCc2ccccn2)cc2cccnc2n1-c1cccc([N+](=O)[O-])c1 [Example 28, 1-(3-Nitrophenyl)-3-[3-(pyridin-2-yl)propyl]-1,8-naphthyridin-2(1H)-one]
178 to 179 | – | – | – | – | O=c1c(CCc2nc3ccccc3s2)cc2cccnc2n1-c1cccc([N+](=O)[O-])c1 [Example 29, 1-(3-Nitrophenyl)-3-[2-(benzothiazol-2-yl)ethyl]-1,8-naphthyridin-2(1H)-one]
185 to 186 | – | – | – | – | O=c1c(CCCc2nc3ccccc3s2)cc2cccnc2n1-c1cccc([N+](=O)[O-])c1 [Example 30, 1-(3-Nitrophenyl)-3-[3-(benzothiazol-2-yl)propyl]-1,8-naphthyridin-2(1H)-one]
198 to 199 | – | – | – | – | O=c1c(CCCc2nccs2)cc2cccnc2n1-c1cccc([N+](=O)[O-])c1 [Example 31, 1-(3-Nitrophenyl)-3-[3-(thiazol-2-yl)propyl]-1,8-naphthyridin-2(1H)-one]
229 to 230 | < 4.00 | 5.92 | 5.41 | < 4.00 | N#Cc1cccc(-n2c(=O)c(Cc3ccncc3)cc3cccnc32)c1 [Example No. 3, 1-(3-Cyanophenyl)-3-(pyridin-4-ylmethyl)-1,8-naphthyridin-2(1H)-one]
163 to 165 | 4.22 | 5.92 | 4.89 | 4.21 | O=c1c(CCCCc2ccccn2)cc2cccnc2n1-c1cccc([N+](=O)[O-])c1 [Example No. 13, 1-(3-Nitrophenyl)-3-[4-(pyridin-2-yl)butyl]-1,8-naphthyridin-2(1H)-one]
168.8 to 169.6 | 4.33 | 5.85 | 5.06 | 4.00 | O=c1c(CCCCc2ccncc2)cc2cccnc2n1-c1cccc([N+](=O)[O-])c1 [Example No. 15, 1-(3-Nitrophenyl)-3-[4-(pyridin-4-yl)butyl]-1,8-naphthyridin-2(1H)-one]
188.8 to 189.6 | < 4.00 | 5.66 | < 4.00 | < 4.00 | O=c1c(CCCCCc2ccncc2)cc2cccnc2n1-c1cccc([N+](=O)[O-])c1 [Example No. 17, 1-(3-Nitrophenyl)-3-[5-(pyridin-4-yl)pentyl]-1,8-naphthyridin-2(1H )-one]
